Data as given in patent publication US9388419B2 (The Regents of the University of Colorado, a body corporate, priority 2009, dated 2016).
Like-named read-outs stand apart in the source and are kept apart here.

What was measured:
[1] = system: E. coli Mach1-T1; test: Minimum inhibitory concentration (MIC) of 3-HP, microaerobic, 96 well-plate, MOPS minimal media; type: cell-based, Escherichia coli; details: E. coli Mach1-T1, MOPS minimal media with the supplement at its optimal concentration vs unsupplemented, microaerobic, 24 hours
Experimental: Overnight cultures of strains were grown in 5 ml LB (with antibiotic where appropriate). A 1 v/v % was used to inoculate a 15 ml conical tube filled to the top with MOPS minimal media and capped. After the cells reached mid exponential phase, the culture was diluted to an OD600 of 0.200. The cells were further diluted 1:20 and a 10 ul aliquot was used to inoculate each well (˜10^4 cells per well).
The minimum inhibitory concentration (MIC) was determined microaerobically in a 96 well-plate format. Overnight cultures of strains were grown in 5 mL LB (with antibiotic where appropriate). A 1% (v/v) inoculum was introduced into a 15 ml culture of MOPS minimal media. After the cells reached mid-exponential phase, the culture was diluted to an OD600 of 0.200. The cells were further diluted 1:20 and a 10 μL aliquot was used to inoculate each well of a 96 well plate (˜10^4 cells per well).

[2] = system: Yeast strains (S288C background); type: cell-based, Saccharomyces cerevisiae; details: aerobic; for Average MIC Assay Result (g/L 3-HP): MIC of 3-HP for yeast S288C in SD media with the named supplement(s); for % Increase Over Control: increase of 3-HP MIC over S288C in SD without supplement
Experimental: The minimum inhibitory concentration (MIC) was determined aerobically in a 96 well-plate format. […] Media supplements were added according to levels reported in the Supplements Table, where specified. Overnight cultures of strains were grown in triplicate in 5 mL SD media with vitamins (Methods in Enzymology vol. 350, page 17 (2002)). A 1% (v/v) inoculum was introduced into a 5 ml culture of SD minimal media without vitamins. After the cells reached mid-exponential phase, the culture was diluted to an OD600 of 0.200. The cells were further diluted 1:5 and a 10 μL aliquot was used to inoculate each well of a 96 well plate (˜10^4 cells per well) to total volume of 100 uL. […] Plates were incubated for 72 hours at 30 C.

[3] = system: Yeast strains (S288C background); type: cell-based, Saccharomyces cerevisiae; details: anaerobic; for Average MIC Assay Result (g/L 3-HP): MIC of 3-HP for yeast S288C in SD media with the named supplement(s); for % Increase Over Control: increase of 3-HP MIC over S288C in SD without supplement
Experimental: The minimum inhibitory concentration (MIC) was determined anaerobically in a 96 well-plate format. […] A 1% (v/v) inoculum was introduced into a 5 ml culture of SD minimal media without vitamins. After the cells reached mid-exponential phase, the culture was diluted to an OD600 of 0.200. The cells were further diluted 1:5 and a 10 μL aliquot was used to inoculate each well of a 96 well plate (˜10^4 cells per well) to total volume of 100 uL. […] Plates were incubated for 72 hours at 30 C. […] Plates were sealed in biobag anaerobic chambers that contained gas generators for anaerobic conditions and incubated for 72 hours at 30 C.

[4] = system: E. coli; type: cell-based, Escherichia coli; details: strain BW25113, M9 media with the named supplement(s), aerobic; MIC of 3-HP versus M9 control without supplement
Experimental: (§1) For MIC evaluations, the final results are expressed in chemical agent concentrations determined by analysis of the stock solution by HPLC (i.e., see Subsection Mb).
(§2) The minimum inhibitory concentration (MIC) was determined aerobically in a 96 well-plate format. […] Media supplements were added according to levels reported in the Supplements Table, where specified. Overnight cultures of strains were grown in triplicate in 5 mL LB (with antibiotic where appropriate). A 1% (v/v) inoculum was introduced into a 5 ml culture of M9 minimal media.

[5] = system: B. subtilis; test: MIC protocol B. subtilis aerobic (Common Methods, M9 media + glutamate, 24 hours); type: cell-based, Bacillus subtilis; details: for Avg 24 hr ΔOD600: B. subtilis 168 in M9 + glu + trp with the named supplement(s), 3HP tolerance; for % Increase Over Control: increase of 24 hr ΔOD600 over B. subtilis 168 without supplement
Experimental: as §1
as §2, with “Table” for “Table,”, “media+glutamate.” for “media.”

[6] = system: E. coli; type: cell-based, Escherichia coli; details: anaerobic; for % Increase Over Control: increase of 3-HP MIC over BW25113 in M9 without supplement; for MIC Assay Result (g/L 3-HP): MIC of 3-HP for E. coli BW25113 in M9 media with the named supplement(s), 24-hour
Experimental: as §1
as §2, with “anaerobically” for “aerobically”

[7] = system: strain BX3_0194; test: 3-HP production by BX3_0194 at 100-mL scale in SM3 medium, without or with 10 μg/ml cerulenin; type: cell-based, E. coli
Experimental: Cultures were started from freezer stocks by standard practice (Sambrook and Russell, 2001) into 50 mL of LB media plus 100 μg/mL ampicillin and grown to stationary phase overnight at 37° C. with rotation at 225 rpm. Five ml of this culture were transferred to 100 ml of SM3 media plus 40 g/L glucose, 100 μg/ml ampicillin, and 1 mM IPTG in triplicate 250-ml baffled flasks and incubated at 37° C., 225 rpm. […] Dry cell weight (DCW) is calculated as 0.33 times the measured OD600 value, based on baseline DCW to OD600 determinations. All data are the average of triplicate cultures.

[8] = system: E. coli K12; type: cell-based, Escherichia coli; details: E. coli K12, M9 minimal media supplemented with the substance (polyamines 0.1 g/L, sodium bicarbonate 20 mM), aerobic, 24 hours
Experimental: Overnight cultures of strains were grown in 5 ml LB (with antibiotic where appropriate) at 37° C. in a shaking incubator. A 1 v/v % was used to inoculate 10 mL of M9 minimal media. After the cells reached mid-exponential phase, the culture was diluted to an OD600 of 0.200. The cells were further diluted 1:20 and a 10 ul aliquot was used to inoculate each well (˜10^4 cells per well). […] The MIC endpoint is the lowest concentration of compound at which there was no visible growth.

Row | Compound | MIC increase (3-HP) resulting from supplementation [1] [%] | % Increase Over Control [3] [%] | % Increase Over Control [4] [%] | also measured
1 | O=C(O)c1cccc(O)c1O [2,3-didyroxybenzoic acid, 2,3-dihydroxybenzoic acid] | 33 |  |  | 
2 | CCC(=O)C(=O)O [2-oxobutyrate (B)] |  | 2 |  | Average MIC Assay Result (g/L 3-HP) [2]: 50 g/L; % Increase Over Control [2]: 11%; Average MIC Assay Result (g/L 3-HP) [3]: 38 g/L
3 | N[C@@H](CC(=O)O)C(=O)O [Aspartate] |  |  |  | % Increase Over Control [2]: 26%
4 | O=C(O)O [Bicarbonate (C)] |  | 140 | 59 | Average MIC Assay Result (g/L 3-HP) [3]: 90 g/L
5 | NCCCCCN [Cadaverine (C)] |  | 60 |  | 
6 | O=C(O)CC(O)(CC(=O)O)C(=O)O [Citrate] |  |  |  | Avg 24 hr ΔOD600 [5]: 0.30
7 | NC(=O)NCCC[C@H](N)C(=O)O [Citrulline (C)] |  |  | 9 | Average MIC Assay Result (g/L 3-HP) [2]: 58 g/L; % Increase Over Control [2]: 28%; Average MIC Assay Result (g/L 3-HP) [3]: 97 g/L
8 | NC(=O)CC[C@H](N)C(=O)O [Glutamine(C)] |  |  | 9 | 
9 | NCC(=O)O [Glycine (B)] |  | 60 |  | Average MIC Assay Result (g/L 3-HP) [2]: 50 g/L; % Increase Over Control [2]: 11%; Average MIC Assay Result (g/L 3-HP) [3]: 60 g/L
10 | NC(CCS)C(=O)O (stereo not drawn) [Homocysteine (B)] |  | 7 | 9 | Average MIC Assay Result (g/L 3-HP) [3]: 40 g/L
11 | CC[C@H](C)[C@H](N)C(=O)O [Isoleucine (B)] |  | 2 | 17 | Average MIC Assay Result (g/L 3-HP) [3]: 38 g/L
12 | NCCCC[C@H](N)C(=O)O [Lysine (D)] |  | 20 | 33 | Average MIC Assay Result (g/L 3-HP) [3]: 45 g/L; % Increase Over Control [6]: 39%
13 | CSCC[C@H](N)C(=O)O [Methionine] |  |  |  | Avg 24 hr ΔOD600 [5]: 0.15
14 | NCCC[C@H](N)C(=O)O [Ornithine(C)] |  |  | 9 | 
15 | N[C@@H](Cc1ccccc1)C(=O)O [Phenylalanine (A)] |  | 2 | 17 | 
16 | N[C@@H](CO)C(=O)O [Serine (B)] |  | 20 | 17 | Average MIC Assay Result (g/L 3-HP) [3]: 45 g/L; % Increase Over Control [6]: 7%
17 | O=C(O)C1=C[C@@H](O)[C@@H](O)[C@H](O)C1 [Shikimate (A)] |  | 60 | 3 | Average MIC Assay Result (g/L 3-HP) [2]: 80 g/L; % Increase Over Control [2]: 78%; Average MIC Assay Result (g/L 3-HP) [3]: 60 g/L

Row | Compound | MIC increase (3-HP) resulting from supplementation [1] [%] | % Increase Over Control [3] [%] | % Increase Over Control [4] [%] | also measured
18 | NCCCCNCCCN [Spermidine (C)] |  | 60 |  | 
19 | Nc1nc(=O)c2c([nH]1)NC[C@@H](CNc1ccc(C(=O)N[C@@H](CCC(=O)O)C(=O)O)cc1)N2 [Tetrahydrofolate (A)] |  |  | 9 | MIC Assay Result (g/L 3-HP) [6]: 40.0 g/L; % Increase Over Control [6]: 33%
20 | C[C@@H](O)[C@H](N)C(=O)O [Threonine (B)] |  | 2 |  | 
21 | N[C@@H](Cc1c[nH]c2ccccc12)C(=O)O [Tryptophan (A)] |  | 47 |  | % Increase Over Control [2]: 20%
22 | C/C=C/C/C=C/CCC(=O)[C@H]1O[C@H]1C(N)=O [cerulenin] |  |  |  | 3HP ([7]; 4 hr): 0.003 g/L; 3HP ([7]; 6 hr): 0.14 g/L; 3HP ([7]; 8 hr): 0.43 g/L; 3HP ([7]; 24 hr): 1.43 g/L
23 | Cl.NC1CCSC1=O (stereo not drawn) [homocysteine thiolactone hydrochloride] | 60 |  |  | 
24 | N[C@@H](CCO)C(=O)O [homoserine] | 33 |  |  | 
25 | CCC(=O)C(=O)O [oxobutanoate] | 7 |  |  | 
26 | Nc1ccc(C(=O)O)cc1 [p-aminobenzoate (A)] |  |  | 27 | MIC Assay Result (g/L 3-HP) [6]: 40.0 g/L; % Increase Over Control [6]: 33%
27 | Nc1ccc(C(=O)O)cc1 [p-aminobenzoic acid] | 7 |  |  | Avg 24 hr ΔOD600 [5]: 0.07; % Increase Over Control [5]: 89%
28 | NNC(=O)c1ccc(O)cc1 [p-hydroxybenzoic acid hydrazide] | 33 |  |  | 
29 | N[C@@H](Cc1ccccc1)C(=O)O [phenylalanine] | 33 |  |  | 
30 | Cc1ncc(CO)c(CO)c1O.Cl [pyridoxine hydrochloride] | 0 |  |  | 
31 | O=C([O-])O.[Na+] [sodium bicarbonate] |  |  |  | Avg 24 hr ΔOD600 [5]: 0.06; % Increase Over Control [5]: 56%; Minimum inhibitory concentration (MIC) of 3-HP in supplemented media [8]: 30 mg/mL
32 | C[C@@H](O)[C@H](N)C(=O)O [threonine] | 3 |  |  | 
33 | N[C@@H](Cc1c[nH]c2ccccc12)C(=O)O [tryptophan] | 33 |  |  | 
34 | N[C@@H](Cc1ccc(O)cc1)C(=O)O [tyrosine] | 40 |  |  | 
